The test has as its target T1, 3-oxo-5-alpha-steroid 4-dehydrogenase 2 (Homo sapiens, UniProt P31213).
T1 sequence (P31213 whole entry): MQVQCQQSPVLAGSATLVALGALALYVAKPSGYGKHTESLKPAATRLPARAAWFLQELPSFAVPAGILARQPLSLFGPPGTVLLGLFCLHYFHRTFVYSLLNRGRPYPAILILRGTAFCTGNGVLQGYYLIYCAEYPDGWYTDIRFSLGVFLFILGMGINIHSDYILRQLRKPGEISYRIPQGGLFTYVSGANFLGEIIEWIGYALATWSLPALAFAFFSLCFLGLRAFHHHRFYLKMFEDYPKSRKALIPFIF
Kind of test: 5α-R2 Activity Assay. On the procedure:
The activity of the isozyme 5α-R type 2 was assayed as previously described [Hirosumi et al., J. Steroid Biochem. Mol. Biol., 52:357-363; Bratoeff et al., J. Steroid Biochem. Mol. Biol., 107:48-56].

In general, IC50 refers to the concentration at which inhibition is half-maximal. Lower therefore signals greater potency.

SMILES strings stand for the structures.

Molecule `C[C@]12CC[C@H](OC(=O)c3ccc(F)cc3)CC1=CCC1C2CC[C@]2(C)C(=O)CCC12` (stereo partly drawn) [17-Oxaandrost-5-ene-3β-yl-p-fluorobenzoate (2)] had an IC50 of 3.58 nM. The figure for `C[C@]12CC[C@H](OC(=O)c3ccccc3)CC1=CCC1C2CC[C@]2(C)C(=O)CCC12` (stereo partly drawn) [17-Oxaandrost-5-ene-3β-yl-benzoate (1)] is over 100000 nM.
